{
  "source": "the supplement of paper PMC8960247",
  "note": "Structures can show the parent of a compound that is named as a salt. ± gives the standard error.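 Further: immortalized renal angiomyolipoma cells stably carrying empty vector or TSC2, dosed in 384-well plates in DMEM, viability normalized to vehicle-treated wells within each plate.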",
  "data": [
    {"test_system": "621-102 (TSC2-deficient)", "experiment": "relative viability vs DMSO; higher = less cytotoxic", "settings": "0.0001 µM; serum: 10% FBS; 72 h", "units": {"relative viability": "%"}, "values": [
      {"smiles": "C[C@]12C=CC(=O)N[C@@H]1CC[C@@H]1[C@@H]2CC[C@]2(C)[C@@H](C(=O)Nc3cc(C(F)(F)F)ccc3C(F)(F)F)CC[C@@H]12", "note": "[Dutasteride (Avodart)]", "relative viability": "118 ± 1.5"},
      {"smiles": "Cc1cc(Nc2cc(N3CCN(C)CC3)nc(/C=C/c3ccccc3)n2)n[nH]1", "note": "[ENMD-2076]", "relative viability": "112 ± 2.8"},
      {"smiles": "COc1cc2c(cc1Cc1cccc(Cl)c1F)c(=O)c(C(=O)O)cn2[C@H](CO)C(C)C", "note": "[Elvitegravir]", "relative viability": "96.63 ± 0.78"},
      {"smiles": "Nc1nc(=O)n([C@@H]2CS[C@H](CO)O2)cc1F", "note": "[Emtricitabine]", "relative viability": "92.1 ± 2.5"},
      {"smiles": "CCOC(=O)[C@H](CCc1ccccc1)N[C@@H](C)C(=O)N1CCC[C@H]1C(=O)O", "note": "[Enalapril Maleate]", "relative viability": "103 ± 1.4"},
      {"smiles": "C[C@H](N[C@@H](CCc1ccccc1)C(=O)O)C(=O)N1CCC[C@H]1C(=O)O", "note": "[Enalaprilat]", "relative viability": "97.6 ± 3.3"},
      {"smiles": "Cn1cc(C2=C(c3cn(C4CCN(Cc5ccccn5)CC4)c4ccccc34)C(=O)NC2=O)c2ccccc21", "note": "[Enzastaurin]", "relative viability": "110 ± 3"},
      {"smiles": "CNC[C@H](O)c1ccc(O)c(O)c1", "note": "[Epinephrine bitartrate]", "relative viability": "119 ± 1.4"},
      {"smiles": "C/C(=C\\c1csc(C)n1)[C@@H]1C[C@@H]2O[C@@H]2CCC[C@H](C)[C@H](O)[C@@H](C)C(=O)C(C)(C)[C@@H](O)CC(=O)O1", "note": "[Epothilone A]", "relative viability": "63.5 ± 3"},
      {"smiles": "C/C(=C\\c1csc(C)n1)[C@@H]1C[C@@H]2O[C@]2(C)CCC[C@H](C)[C@H](O)[C@@H](C)C(=O)C(C)(C)[C@@H](O)CC(=O)O1", "note": "[Epothilone B (EPIO906)]", "relative viability": "29.4 ± 1.8"},
      {"smiles": "C#Cc1cccc(Nc2ncnc3cc(OCCOC)c(OCCOC)cc23)c1", "note": "[Erlotinib]", "relative viability": "106.7 ± 1"},
      {"smiles": "COc1ccc2[nH]c([S@@+]([O-])Cc3ncc(C)c(OC)c3C)nc2c1", "note": "[Esomeprazole sodium (Nexium I.V.)]", "relative viability": "93.6 ± 1.3"},
      {"smiles": "COc1cc([C@@H]2c3cc4c(cc3[C@@H](O[C@@H]3O[C@@H]5CO[C@@H](C)O[C@H]5[C@H](O)[C@H]3O)[C@H]3COC(=O)[C@H]23)OCO4)cc(OC)c1O", "note": "[Etoposide (Etopophos)]", "relative viability": "109.8 ± 0.44"}
    ]},
    {"test_system": "621-102 (TSC2-deficient)", "experiment": "relative viability vs DMSO; higher = less cytotoxic", "settings": "0.001 µM; serum: 10% FBS; 72 h", "units": {"relative viability": "%"}, "values": [
      {"smiles": "C[C@]12C=CC(=O)N[C@@H]1CC[C@@H]1[C@@H]2CC[C@]2(C)[C@@H](C(=O)Nc3cc(C(F)(F)F)ccc3C(F)(F)F)CC[C@@H]12", "note": "[Dutasteride (Avodart)]", "relative viability": "116 ± 1.9"},
      {"smiles": "Cc1cc(Nc2cc(N3CCN(C)CC3)nc(/C=C/c3ccccc3)n2)n[nH]1", "note": "[ENMD-2076]", "relative viability": "98.5 ± 1.7"},
      {"smiles": "COc1cc2c(cc1Cc1cccc(Cl)c1F)c(=O)c(C(=O)O)cn2[C@H](CO)C(C)C", "note": "[Elvitegravir]", "relative viability": "107.1 ± 0.31"},
      {"smiles": "Nc1nc(=O)n([C@@H]2CS[C@H](CO)O2)cc1F", "note": "[Emtricitabine]", "relative viability": "90.4 ± 1.3"},
      {"smiles": "CCOC(=O)[C@H](CCc1ccccc1)N[C@@H](C)C(=O)N1CCC[C@H]1C(=O)O", "note": "[Enalapril Maleate]", "relative viability": "92.6 ± 3.4"},
      {"smiles": "C[C@H](N[C@@H](CCc1ccccc1)C(=O)O)C(=O)N1CCC[C@H]1C(=O)O", "note": "[Enalaprilat]", "relative viability": "100 ± 4.3"},
      {"smiles": "Cn1cc(C2=C(c3cn(C4CCN(Cc5ccccn5)CC4)c4ccccc34)C(=O)NC2=O)c2ccccc21", "note": "[Enzastaurin]", "relative viability": "114 ± 1.6"},
      {"smiles": "CNC[C@H](O)c1ccc(O)c(O)c1", "note": "[Epinephrine bitartrate]", "relative viability": "118 ± 1.5"},
      {"smiles": "C/C(=C\\c1csc(C)n1)[C@@H]1C[C@@H]2O[C@@H]2CCC[C@H](C)[C@H](O)[C@@H](C)C(=O)C(C)(C)[C@@H](O)CC(=O)O1", "note": "[Epothilone A]", "relative viability": "47 ± 4"},
      {"smiles": "C/C(=C\\c1csc(C)n1)[C@@H]1C[C@@H]2O[C@]2(C)CCC[C@H](C)[C@H](O)[C@@H](C)C(=O)C(C)(C)[C@@H](O)CC(=O)O1", "note": "[Epothilone B (EPIO906)]", "relative viability": "29.3 ± 0.11"},
      {"smiles": "C#Cc1cccc(Nc2ncnc3cc(OCCOC)c(OCCOC)cc23)c1", "note": "[Erlotinib]", "relative viability": "102 ± 3.1"},
      {"smiles": "COc1ccc2[nH]c([S@@+]([O-])Cc3ncc(C)c(OC)c3C)nc2c1", "note": "[Esomeprazole sodium (Nexium I.V.)]", "relative viability": "107 ± 6.9"},
      {"smiles": "COc1cc([C@@H]2c3cc4c(cc3[C@@H](O[C@@H]3O[C@@H]5CO[C@@H](C)O[C@H]5[C@H](O)[C@H]3O)[C@H]3COC(=O)[C@H]23)OCO4)cc(OC)c1O", "note": "[Etoposide (Etopophos)]", "relative viability": "108.1 ± 0.98"}
    ]},
    {"test_system": "621-102 (TSC2-deficient)", "experiment": "relative viability vs DMSO; higher = less cytotoxic", "settings": "0.01 µM; serum: 10% FBS; 72 h", "units": {"relative viability": "%"}, "values": [
      {"smiles": "C[C@]12C=CC(=O)N[C@@H]1CC[C@@H]1[C@@H]2CC[C@]2(C)[C@@H](C(=O)Nc3cc(C(F)(F)F)ccc3C(F)(F)F)CC[C@@H]12", "note": "[Dutasteride (Avodart)]", "relative viability": "115 ± 2.4"},
      {"smiles": "Cc1cc(Nc2cc(N3CCN(C)CC3)nc(/C=C/c3ccccc3)n2)n[nH]1", "note": "[ENMD-2076]", "relative viability": "103.4 ± 0.19"},
      {"smiles": "COc1cc2c(cc1Cc1cccc(Cl)c1F)c(=O)c(C(=O)O)cn2[C@H](CO)C(C)C", "note": "[Elvitegravir]", "relative viability": "105 ± 3.3"},
      {"smiles": "Nc1nc(=O)n([C@@H]2CS[C@H](CO)O2)cc1F", "note": "[Emtricitabine]", "relative viability": "95.4 ± 1"},
      {"smiles": "CCOC(=O)[C@H](CCc1ccccc1)N[C@@H](C)C(=O)N1CCC[C@H]1C(=O)O", "note": "[Enalapril Maleate]", "relative viability": "101.9 ± 0.59"},
      {"smiles": "C[C@H](N[C@@H](CCc1ccccc1)C(=O)O)C(=O)N1CCC[C@H]1C(=O)O", "note": "[Enalaprilat]", "relative viability": "96.26 ± 0.64"},
      {"smiles": "Cn1cc(C2=C(c3cn(C4CCN(Cc5ccccn5)CC4)c4ccccc34)C(=O)NC2=O)c2ccccc21", "note": "[Enzastaurin]", "relative viability": "107 ± 1.7"},
      {"smiles": "CNC[C@H](O)c1ccc(O)c(O)c1", "note": "[Epinephrine bitartrate]", "relative viability": "105 ± 4"},
      {"smiles": "C/C(=C\\c1csc(C)n1)[C@@H]1C[C@@H]2O[C@@H]2CCC[C@H](C)[C@H](O)[C@@H](C)C(=O)C(C)(C)[C@@H](O)CC(=O)O1", "note": "[Epothilone A]", "relative viability": "31.1 ± 0.38"},
      {"smiles": "C/C(=C\\c1csc(C)n1)[C@@H]1C[C@@H]2O[C@]2(C)CCC[C@H](C)[C@H](O)[C@@H](C)C(=O)C(C)(C)[C@@H](O)CC(=O)O1", "note": "[Epothilone B (EPIO906)]", "relative viability": "27.3 ± 1.2"},
      {"smiles": "C#Cc1cccc(Nc2ncnc3cc(OCCOC)c(OCCOC)cc23)c1", "note": "[Erlotinib]", "relative viability": "107.7 ± 1"},
      {"smiles": "COc1ccc2[nH]c([S@@+]([O-])Cc3ncc(C)c(OC)c3C)nc2c1", "note": "[Esomeprazole sodium (Nexium I.V.)]", "relative viability": "107 ± 3.4"},
      {"smiles": "COc1cc([C@@H]2c3cc4c(cc3[C@@H](O[C@@H]3O[C@@H]5CO[C@@H](C)O[C@H]5[C@H](O)[C@H]3O)[C@H]3COC(=O)[C@H]23)OCO4)cc(OC)c1O", "note": "[Etoposide (Etopophos)]", "relative viability": "114 ± 3.7"}
    ]}
  ]
}
